According to the NIST ThermoML archive (doi:10.1016/j.jct.2011.09.008):
± gives the expanded uncertainty stated by the source.

Assays:
[1] = 101 kPa, Liquid, Sing-around technique in a fixed-path interferometer
[2] = xn = mol fraction of the nth substance listed; conditions: 283.15 K; 101 kPa; Liquid; Sing-around technique in a fixed-path interferometer; x2 = 0

SMILES | speed of sound ([1]; 283.15 K) [m/s] | speed of sound ([1]; 288.15 K) [m/s] | speed of sound ([1]; 293.15 K) [m/s] | speed of sound ([1]; 298.15 K) [m/s] | speed of sound ([1]; 303.15 K) [m/s] | speed of sound [2] [m/s]
CCCOCC(C)O (stereo unspecified) [1-propoxy-2-propanol] | 1301.9 ± 1.5 | 1283.2 ± 1.5 | 1264.5 ± 1.5 | 1245.8 ± 1.5 | 1227.3 ± 1.5 | 
O [water] + CCCOCC(C)O |  |  |  |  |  | 1447.3 ± 1.2
